Literature values in patent US9358096B2, “Methods of treatment with drug eluting stents with prolonged local elution profiles with high local concentrations and low systemic concentrations” (Abbott Laboratories, priority 2007, dated 2016).

Experiments:
[1] = kidney transplant recipients; usual oral dose of sirolimus of 2 mg per day; cited from earlier work
[2] = cited from earlier work

Which results are given for CO[C@H]1C[C@@H]2CC[C@@H](C)[C@@](O)(O2)C(=O)C(=O)N2CCCC[C@H]2C(=O)O[C@H]([C@H](C)C[C@@H]2CC[C@@H](O)[C@H](OC)C2)CC(=O)[C@H](C)/C=C(\C)[C@@H](O)[C@@H](OC)C(=O)[C@H](C)C[C@H](C)/C=C/C=C/C=C/1C [sirolimus]?
trough concentration [1]: 9 ng/mL; peak concentration of sirolimus, one patient ([2]; after receiving three 80 mm stents configured as stent 1): 35.5 ng/mL; mean systemic sirolimus concentration ([2]; patients treated with stent 1, one hour after stenting): 20.4 ± 10.0 ng/mL
